Laboratory results reported in ChEMBL document CHEMBL1158880, “New cembranoid diterpenes and a geranylgeraniol derivative from the common Caribbean sea whip Eunicea succinea” (1997).

Legend:
Type in all cases: functional
[1] = Cytotoxicity against human Hs 578T cells
M14 = assay: Cytotoxicity against human M14 cells
SNB-75 = assay: Cytotoxicity against human SNB75 cells

## C=C(C)[C@H]1CC/C(C)=C/CC[C@@]2(C)O[C@@H]2CC/C(COC(C)=O)=C\[C@@H]1O [ASPERDIOL ACETATE]
[1]
  GI50: 8.28 µM
M14
  GI50: 8.28 µM
SNB-75
  GI50: 0.625 µM
